Tested on: E1, UbcH5c, UbcH7, HOIL-1L, RNF144A, HHARI, TRIAD3A RBR domains, NEDD4L, E6AP, OTULIN, CYLD-1
Test: LC-MS-based enzyme counter screen
Format: binding
Conditions: 10-fold stoichiometric excess, 24 h incubation
Protocol: 0.1% formic acid in water. The samples were analyzed on a Q Exactive MS (Thermo Fisher) coupled to an Easy-nLC chromatographic system (Thermo Fisher) with a nano ESI source (Thermo Fisher). Each sample (2 µL) was injected and trapped on a C18 Acclaim pepMap 100 enrichment column (75 µm id × 2 cm, 3 µm nanoviper, Thermo Fisher). The samples were transferred to a C18 Acclaim PepMap RSLC analytical column (75 µm id × 15 cm, 2 µm, Thermo Fisher) at 300 nL/min. Mobile phase A (0.1% Formic acid in water, v/v); mobile phase B (0.1% […]
min (70-95% B), 56-61 min (95% B). The nanospray ionisation source was operated in the positive mode with spray voltage set at 2 kV, and heated capillary at 250 °C. The Q Exactive was operated in the data dependent mode and the top 15 most intense ions were subjected to HCD fragmentation with normalised collision energy set at 26%. The MS1 scans were performed at a resolution of 70 000 from 400-1600 m/z, automatic gain control (AGC) value 3 e6, maximum injection time 100 ms. […]
Compounds (1) and (5) were screened against E1, the E2s UbcH5c and UbcH7, the RBR domains of the E3 ligases HOIP, HOIL-1L, RNF144A, HHARI and TRIAD3A, the HECT E3 ligases NEDD4L and E6AP, and the DUBs OTULIN and CYLD-1. […] The samples were analyzed after 0.5 and 24 h incubation. […]

labeling of all other proteins screened: < 40%
SMILES: COC(=O)/C=C/CNC(=O)c1cc2c([nH]c1=O)CCC2 [Compound 5]

From paper PMC6383986, “Fragment-Based Covalent Ligand Screening Enables Rapid Discovery of Inhibitors for the RBR E3 Ubiquitin Ligase HOIP” (Journal of the American Chemical Society, 2019)
